Source: patent US20230382925A1, “MODULATORS OF CYSTIC FIBROSIS TRANSMEMBRANE CONDUCTANCE REGULATOR” (VERTEX PHARMACEUTICALS INCORPORATED, priority 2020, published 2023)
Where two headings read alike, the source gives them in different places. One block for each compound: values may come before it.

Assays:
[1] = amide bond, 13-membered ring
[2] = molecular target: T1, CFTR (Homo sapiens, UniProt P13569); assay: Membrane Potential Dye, Enteroid Assay A; type: cell-based; settings: for EC50: read-out: Ent. A EC50
T1 sequence (P13569 with tags, fused parts or gaps DEL508-508): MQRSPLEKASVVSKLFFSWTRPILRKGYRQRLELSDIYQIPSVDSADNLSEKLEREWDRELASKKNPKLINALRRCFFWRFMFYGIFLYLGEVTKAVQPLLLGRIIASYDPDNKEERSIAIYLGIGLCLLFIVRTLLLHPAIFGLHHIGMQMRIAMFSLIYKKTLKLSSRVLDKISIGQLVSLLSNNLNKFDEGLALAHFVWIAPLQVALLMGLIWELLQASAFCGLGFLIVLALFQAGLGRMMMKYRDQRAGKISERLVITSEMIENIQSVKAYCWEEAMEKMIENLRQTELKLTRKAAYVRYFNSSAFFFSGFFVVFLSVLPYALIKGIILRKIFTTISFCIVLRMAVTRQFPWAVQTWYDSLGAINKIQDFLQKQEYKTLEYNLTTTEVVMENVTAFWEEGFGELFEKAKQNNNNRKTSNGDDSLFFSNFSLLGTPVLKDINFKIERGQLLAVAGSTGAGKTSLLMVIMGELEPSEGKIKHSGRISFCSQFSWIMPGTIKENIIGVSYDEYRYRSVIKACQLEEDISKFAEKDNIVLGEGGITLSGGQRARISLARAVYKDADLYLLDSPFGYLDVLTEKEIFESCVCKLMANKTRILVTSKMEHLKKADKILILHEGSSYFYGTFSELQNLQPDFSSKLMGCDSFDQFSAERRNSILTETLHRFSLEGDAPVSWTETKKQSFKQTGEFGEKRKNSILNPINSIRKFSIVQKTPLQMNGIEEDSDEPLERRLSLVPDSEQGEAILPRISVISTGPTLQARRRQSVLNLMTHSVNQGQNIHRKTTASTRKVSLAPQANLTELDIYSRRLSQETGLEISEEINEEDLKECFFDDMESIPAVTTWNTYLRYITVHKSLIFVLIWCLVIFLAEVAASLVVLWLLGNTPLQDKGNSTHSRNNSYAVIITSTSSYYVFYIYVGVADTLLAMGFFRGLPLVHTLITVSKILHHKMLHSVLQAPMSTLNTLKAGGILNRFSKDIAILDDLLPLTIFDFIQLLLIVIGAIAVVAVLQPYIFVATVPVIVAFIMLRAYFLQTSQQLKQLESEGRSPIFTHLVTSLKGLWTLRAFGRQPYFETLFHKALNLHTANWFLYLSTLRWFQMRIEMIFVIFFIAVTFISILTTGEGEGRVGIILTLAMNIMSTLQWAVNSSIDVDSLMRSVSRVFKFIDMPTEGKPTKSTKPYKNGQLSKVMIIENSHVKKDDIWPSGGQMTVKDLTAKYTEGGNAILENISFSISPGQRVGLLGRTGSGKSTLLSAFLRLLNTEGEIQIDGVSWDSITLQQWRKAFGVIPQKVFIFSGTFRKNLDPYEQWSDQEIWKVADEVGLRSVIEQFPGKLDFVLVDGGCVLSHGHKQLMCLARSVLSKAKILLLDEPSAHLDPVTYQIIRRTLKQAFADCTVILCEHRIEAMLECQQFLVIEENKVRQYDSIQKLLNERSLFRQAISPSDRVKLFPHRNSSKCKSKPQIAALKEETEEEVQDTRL
In short: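 Primary human intestinal enteroid cells exposed to compound for 18–24 hours at 37 °C, then loaded 25 min with methyl oxonol membrane potential dye plus CaCC inhibitors. Chloride transport triggered in chloride-free buffer with 10 μM forskolin, 100 μM IBMX and 300 nM Compound III, fluorescence read 15 min; % Activity relative to a triple-combination corrector/potentiator control.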

[3] = molecular target: T1, CFTR; assay: Membrane Potential Dye, Enteroid Assay B; type: cell-based
In short: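 Human intestinal enteroid cells exposed to compound 18-24 h at 37 °C, then loaded with methyl oxonol membrane-potential dye plus CaCC blockers. Chloride transport triggered in chloride-free buffer with 10 μM forskolin, 100 μM IBMX, 300 nM Compound III; fluorescence read 15 min, expressed as % of triple-corrector/potentiator combination control.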

[4] = molecular target: T2, CFTR (Homo sapiens, UniProt P13569, DEL508-508); assay: HBE2 assay: Ussing chamber assay of CFTR-mediated short-circuit currents (F508del/MF-HBE, with 44 nM potentiator); type: cell-based; settings: F508del/MF-HBE cells; single fixed concentration 3 μM with 44 nM (6R,12R)-17-amino-12-methyl-6,15-bis(trifluoromethyl)-...-pentaen-6-ol, 18-24 hours, 20% human serum
T2 construct: human bronchial epithelial (HBE) cells derived from CF subjects heterozygous for F508del; endogenous in cells; host or cells: primary human bronchial epithelial cells from CF subjects (F508del/MF-HBE)
T2 sequence (P13569 with tags, fused parts or gaps DEL508-508): as above
Method: 1. Ussing Chamber Assay of CFTR-mediated Short-circuit Currents
Ussing chamber experiments were performed using human bronchial epithelial (HBE) cells derived from CF subjects heterozygous for F508del and a minimal function CFTR mutation (F508del/MF-HBE) and cultured as previously described (Neuberger T, Burton B, Clark H, Van Goor F Methods Mol Biol 2011:741:39-54). After four days the apical media was removed, and the cells were grown at an air liquid interface for >14 days prior to use.
To isolate the CFTR-mediated short-circuit (ISC) current, F508del/MF-HBE grown on Costar® Snapwell™ cell culture inserts were mounted in an Ussing chamber and the transepithelial ISC was measured under voltage-clamp recording conditions (Vhold=0 mV) at 37° C. The basolateral solution contained (in mM) 145 NaCl, 0.83 K2HPO4, 3.3 KH2PO4, 1.2l MgCl2, 1.2 CaCl2), 10 Glucose, 10 HEPES (pH adjusted to 7.4 with NaOH) and the apical solution contained (in mM) 145 NaGluconate, 1.2 MgCl2, 1.2 CaCl2), 10 glucose, 10 HEPES (pH adjusted to 7.4 with NaOH) and 30 μM amiloride to block the epithelial sodium channel. […] The CFTR-mediated ISC (μA/cm^2) for each condition was determined from the peak forskolin response to the steady-state current following inhibition. […]
The activity of the CFTR corrector compounds on the CFTR-mediated ISC was determined in Ussing chamber studies as described above. […]

[5] = Table 10, read-out: Ent. B EC50

SMILES: Cc1cccc(C)c1-c1cc2nc(n1)NS(=O)(=O)c1cccc(c1)C(=O)N(C1CC3(CCN(C(=O)OC(C)(C)C)CC3)C1)[C@H](CC(C)C)CO2 [Compound 13, tert-Butyl 2-[(11R)-6-(2,6-dimethylphenyl)-11-isobutyl-2,2,13-trioxo-9-oxa-2λ^6-thia-3,5,12,19-tetrazatricyclo[12.3.1.14,8]nonadeca-1(18),4(19),5,7,14,16-hexaen-12-yl]-7-azaspiro[3.5]nonane-7-carboxylate]
ring closure, isolated yield ([1]; from Cc1cccc(C)c1-c1cc(OC[C@@H](CC(C)C)NC2CC3(CCN(C(=O)OC(C)(C)C)CC3)C2)nc(NS(=O)(=O)c2cccc(C(=O)O)c2)n1, HATU/DIEA, DMF, 68.6 mM, 25.0 °C, 13.0 h): 78%
Ent. A Max Activity (%) [2]: +++ (+++ is >60%)
EC50 [2]: < 1 µM
Ent. B Max Activity (%) [3]: +++ (+++ is >60%)
EC50 ([3]; read-out: Ent. B EC50): < 1 µM

SMILES: Cc1cccc(C)c1-c1cc2nc(n1)NS(=O)(=O)c1cccc(c1)C(=O)N(C1CC3(CC3)C1)[C@H](CC(C)(C)O)CO2 [Compound 51, (11R)-6-(2,6-Dimethylphenyl)-11-(2-hydroxy-2-methyl-propyl)-2,2-dioxo-12-spiro[2.3]hexan-5-yl-9-oxa-2λ^6-thia-3,5,12,19-tetrazatricyclo[12.3.1.14,8]nonadeca-1(18),4(19),5,7,14,16-hexaen-13-one]
ring closure, isolated yield ([1]; from Cc1cccc(C)c1-c1cc(OC[C@@H](CC(C)(C)O)NC2CC3(CC3)C2)nc(NS(=O)(=O)c2cccc(C(=O)O)c2)n1, T3P/Et3N, DMF/EtOAc, 26.4 mM, 4.0 h): 17%
Ent. B Max Activity (%) ([3]; Table 10): +++ (+++ is >60%)
EC50 [3, 5]: 1 to 3 µM

SMILES: Cc1cccc(C)c1-c1cc2nc(n1)NS(=O)(=O)c1cccc(c1)C(=O)N(C1CC3(CCN(C(=O)OC(C)(C)C)CC3)C1)[C@H](CC1(C(F)(F)F)CC1)CO2 [Compound 127, tert-butyl 2-[(11R)-6-(2,6-dimethylphenyl)-2,2,13-trioxo-11-[[1-(trifluoromethyl)cyclopropyl]methyl]-9-oxa-2λ^6-thia-3,5,12,19-tetrazatricyclo[12.3.1.14,8]nonadeca-1(18),4(19),5,7,14,16-hexaen-12-yl]-7-azaspiro[3.5]nonane-7-carboxylate]
ring closure, isolated yield ([1]; from Cc1cccc(C)c1-c1cc(OC[C@@H](CC2(C(F)(F)F)CC2)NC2CC3(CCN(C(=O)OC(C)(C)C)CC3)C2)nc(NS(=O)(=O)c2cccc(C(=O)O)c2)n1, HATU/DIEA, DMF, 65.3 mM, 16.0 h): 59%
Ent. B Max Activity (%) [3]: +++ (+++ is >60%)
EC50 ([3]; read-out: Ent. B EC50): < 1 µM

SMILES: Cc1cccc(C)c1-c1cc2nc(n1)NS(=O)(=O)c1cccc(n1)C(=O)N(C1CC3(CC3)C1)[C@H](CC1(C(F)(F)F)CC1)CO2 [Compound 163, (11R)-6-(2,6-Dimethylphenyl)-2,2-dioxo-12-spiro[2.3]hexan-5-yl-11-[[1-(trifluoromethyl)cyclopropyl]methyl]-9-oxa-2λ^6-thia-3,5,12,18,19-pentazatricyclo[12.3.1.14,8]nonadeca-1(18),4(19),5,7,14,16-hexaen-13-one]
ring closure, isolated yield ([1]; from Cc1cccc(C)c1-c1cc(OC[C@@H](CC2(C(F)(F)F)CC2)NC2CC3(CC3)C2)nc(NS(=O)(=O)c2cccc(C(=O)O)n2)n1, HATU/DIEA, NMP, 99.8 mM, 25.0 °C, 16.0 h): 58%
Ent. A Max Activity (%) [2]: +++ (+++ is >60%)
EC50 [2]: < 1 µM

The next lines start with results.

Ent. B Max Activity (%) ([3]; Table 9): +++ (+++ is >60%)
EC50 ([3]; Table 9, read-out: Ent. B EC50): < 1 µM
SMILES: Cc1cccc(C)c1-c1cc2nc(n1)NS(=O)(=O)c1cccc(c1)C(=O)N(C1CC3(CCN(C(=O)OC(C)(C)C)CC3)C1)[C@H](CC(C)(C)C(F)(F)F)CO2 [Compound 187, tert-Butyl 2-[(11R)-6-(2,6-dimethylphenyl)-2,2,13-trioxo-11-(3,3,3-trifluoro-2,2-dimethylpropyl)-9-oxa-2λ^6-thia-3,5,12,19-tetraazatricyclo[12.3.1.14,8]nonadeca-1(17),4(19),5,7,14(18),15-hexaen-12-yl]-7-azaspiro[3.5]nonane-7-carboxylate]
ring closure, isolated yield ([1]; from Cc1cccc(C)c1-c1cc(OC[C@@H](CC(C)(C)C(F)(F)F)NC2CC3(CCN(C(=O)OC(C)(C)C)CC3)C2)nc(NS(=O)(=O)c2cccc(C(=O)O)c2)n1, HATU/DIEA, DMF, 37.7 mM, 17.0 h): 15%

Ent. A Max Activity (%) [2]: +++ (+++ is >60%)
EC50 [2]: < 1 µM
Ent. B Max Activity (%) [3]: +++ (+++ is >60%)
EC50 ([3]; read-out: Ent. B EC50): < 1 µM
SMILES: Cc1cccc(C)c1-c1cc2nc(n1)NS(=O)(=O)c1cccc(c1)C(=O)N(C1CC3(CC3)C1)[C@H](CC1(C(F)(F)F)CC1)CO2 [Compound 198, (11R)-6-(2,6-Dimethylphenyl)-2,2-dioxo-12-spiro[2.3]hexan-5-yl-11-[[1-(trifluoromethyl)cyclopropyl]methyl]-9-oxa-2λ^6-thia-3,5,12,19-tetrazatricyclo[12.3.1.14,8]nonadeca-1(18),4(19),5,7,14,16-hexaen-13-one]
ring closure, isolated yield ([1]; from Cc1cccc(C)c1-c1cc(OC[C@@H](CC2(C(F)(F)F)CC2)NC2CC3(CC3)C2)nc(NS(=O)(=O)c2cccc(C(=O)O)c2)n1, HATU/DIEA, DMF, 49.1 mM, 21.0 h): 60%

Ent. B Max Activity (%) ([3]; Table 10): +++ (+++ is >60%)
EC50 [3, 5]: < 1 µM
SMILES: Cc1cccc(C)c1-c1cc2nc(n1)NS(=O)(=O)c1cccc(c1)C(=O)N(C1CC3(CC(NC(=O)OC(C)(C)C)C3)C1)[C@H](CC(C)(C)C)CO2 (stereo partly shown) [Compound 199]
ring closure, isolated yield ([1]; from Cc1cccc(C)c1-c1cc(OC[C@@H](CC(C)(C)C)NC2CC3(CC(NC(=O)OC(C)(C)C)C3)C2)nc(NS(=O)(=O)c2cccc(C(=O)O)c2)n1, HATU/DIEA, DMF, 107.7 mM, 24.0 h): 63%
ring closure, isolated yield ([1]; from Cc1cccc(C)c1-c1cc(OC[C@@H](CC(C)(C)C)NC2CC3(CC(NC(=O)OC(C)(C)C)C3)C2)nc(NS(=O)(=O)c2cccc(C(=O)O)c2)n1, HATU/DIEA, DMF, 120.7 mM, 36.0 h): 80%

HBE2 Activity at 3 μM [4]: +++ (+++ is >60%)
SMILES: Cc1cccc(C)c1-c1cc2nc(n1)NS(=O)(=O)c1cccc(c1)C(=O)N(C1CCCN(C)C1=O)[C@H](CC(C)(C)C)CO2 (stereo partly drawn) [Compound 507, (11R)-6-(2,6-Dimethylphenyl)-11-(2,2-dimethylpropyl)-12-(1-methyl-2-oxo-3-piperidyl)-2,2-dioxo-9-oxa-2λ^6-thia-3,5,12,19-tetrazatricyclo[12.3.1.14,8]nonadeca-1(18),4(19),5,7,14,16-hexaen-13-one]

HBE2 Activity at 3 μM [4]: +++ (+++ is >60%)
SMILES: Cc1cccc(C)c1-c1cc2nc(n1)NS(=O)(=O)c1cccc(c1)C(=O)N(C1CCN(C)C1=O)[C@H](CC(C)(C)C)CO2 (stereo partly drawn) [Compound 508, (11R)-6-(2,6-Dimethylphenyl)-11-(2,2-dimethylpropyl)-12-(1-methyl-2-oxo-pyrrolidin-3-yl)-2,2-dioxo-9-oxa-2λ^6-thia-3,5,12,19-tetrazatricyclo[12.3.1.14,8]nonadeca-1(18),4(19),5,7,14,16-hexaen-13-one]
